From US6702996B1, “Method for investigating the suitability of a material as a medicament” (Aventis Pharma Deutschland GmbH, priority 1999, dated 2004)

System: C. elegans
Assay: Retraction reflex of nematodes to a local thermal stimulus (laser, head region)
Format: in vivo, Caenorhabditis elegans
Conditions: for effect on the reflex behaviour of the nematode: nematodes exposed to the substance, local thermal stimulus
Experimental: The inventors' experiments have thus shown that the use of C. elegans as an animal model for studying materials in terms of their suitability as medicaments in humans or other mammals allows reliable predictions to be made, especially where the sensation or perception of pain is involved, both in terms of algesic or hyperalgesic effects and in terms of analgesic effects. […] A normal reflex to a thermal stimulus of e.g. 32-40° C. in the head region of the nematode can be described as follows:
I) Rapid reflexive retraction by at least one whole body length and subsequent orientation of the head in another direction.
II) Rapid reflexive retraction, but without backward motion.
The well-fed test animals (C. elegans) (about 100; length about 1.3 mm; diameter 80 μm) were irradiated in the experiments with an infrared laser (685±0.5 nm). The laser beam was always focused on a spot of diameter 30 μm in the head region of the animal, a local warming to 33.5±1° C. being observed on an agar surface. To examine the animals' behaviour in greater detail, they were exposed to a nociceptive stimulus, after which they were incubated in capsaicin at concentrations varying from 1 to 100 μM. A strong reaction was still being observed 1 h after incubation.

SMILES	reaction (intensified reflex as in I)) in mutants (C. elegans mutants whose normal behaviour is that only 70% of the animals react as in I))	animals exhibiting a reflex as in I) (rapid reflexive retraction by at least one whole body length) (incubated in capsaicin 1 to 100 μM, 1 h after incubation, laser warming to 33.5±1° C. in head region, control group 80%)	effect on the reflex behaviour of the nematode
COc1cc(CNC(=O)CCCC/C=C/C(C)C)ccc1O [capsaicin]	observed even more clearly	over 90%	can be influenced
Oc1cc2c(cc1O)CN(C(=S)NCCc1ccc(Cl)cc1)CCC2 [capzazepine]			can be influenced
